From patent publication US6117840A, “CS-1 peptidomimetics, compositions and methods of using the same” (Cytel Corporation, priority 1997, dated 2000)
Where two headings read alike, the source gives them in different places. Each block holds one molecule with its values, some of them ahead of it. Square brackets hold non-standard residues; d marks the D form. Peptide text beside a SMILES is read from it. * marks the point of attachment. NHOctadecyl = CCCCCCCCCCCCCCCCCCN*; hPhe = N[C@@H](CCc1ccccc1)C(=O)O; Cha = N[C@@H](CC1CCCCC1)C(=O)O; NHPhenethyl = c1ccc(CCN*)cc1; Morpholide = C1CN(*)CCO1; Nle = CCCC[C@H](N)C(=O)O; Piperidide = C1CCN(*)CC1; NHDecyl = CCCCCCCCCCN*; PhAc = O=C(Cc1ccccc1)*; Inp = O=C(O)C1CCNCC1; NHBn = c1ccc(CN*)cc1; Ahx = NCCCCCC(=O)O

What was measured:
VLA-4 = molecular target: T1, VLA-4 (Homo sapiens, UniProt P05556+P13612); type: cell-based
T1 construct: host or cells: Jurkat (human T lymphoblastic line)
Method: Binding inhibition is measured here as a concentration of peptide that inhibits one-half the binding between a standard number of Jurkat cells and a standard amount of CS-1 peptide bound to the surface of a microtiter plate well. Those concentrations are conveniently expressed as IC50 values, smaller numbers indicating a lower concentration required to inhibit 50 percent binding and therefore greater potency. Further specifics of this assay are provided hereinafter.
Jurkat cells (ATCC TIB 152), a human T lymphoblastic line, labeled with ^51 chromium were used to assay in vitro binding inhibition provided by various peptides discussed herein.
The plates were prepared as follows: The 25-mer CS1 peptide (SEQ ID NO:1) dissolved at 0.5-1 μg/ml in a buffer of 0.1M NaHCO3 at pH 9.5 tha also contained 10 μg/ml of bovine serum albumin (BSA) or a conjugate o the CS1 peptide linked to ovalbumin (CS1-OVA) dissolved at 1-2.5 μg/ml in the same buffer was used as the substrate. Each well of the microtiter plates was coated with 50 μl of substrate or buffer alone for controls The wells were permitted to dry out completely and were then rinsed twice with PBS at pH 7.4. Nonspecific binding sites of each well were then blocked using 200 μl per well of RPMI/1 percent BSA for two hours at room temperature. Both solid phaseaffixed substrates provided similar results.
Jurkat cells (3-5×10^6 cells) were placed into a 15 ml Falcon.TM roundbottom tube with a cap. The tube was centrifuged, and the extra medium was then removed.
Two hundred microliters of a ^51 Cr labeling solution were added to th centrifuged cells and maintained in contact with the cells for 90-120 minutes in a warm room. This procedure typically provides about 50,000-100,000 cpm/well with about 80-100 percent cell viability. Longer contact times provide a greater amount of labeling but lower cell viability.
The labeled cells are washed with (i) complete medium, (ii) 1 mM EDTA/PBS and then (iii) RPMI/1 percent BSA free of serum components. The cells are centrifuged after each washing. The cells are finally resuspended in serumfree RPMI/1 percent BSA at a concentration of 1×10^6 viabl cells/ml, which provides a concentration that is diluted by onehalf in th assay.
Inhibitor peptides are prepared as stock solutions at 20 mg/ml in DMSO in 1.5 ml cryogenic screwcap vials, and were stored at -70° C. Using Flow™ roundbottom or Vbottom microtiter plates, the inhibitor peptides were prepared at twice the assay concentration in RPMI/1 percent BSA at 6 μl/well.
Four initial dilutions were typically used.
The ^51 Crlabeled cells (1×10^6 cells at 60 μl/well) were then admixed with the diluted peptide solutions. The admixtures were maintained at room temperature (about 22° C.) for 30 minutes.
One hundred microliters of each inhibitor peptide/cell admixture were transferred to the substratecoated wells. This was done in triplicate for each dilution. The resulting plates were incubated for 30 minutes at 37° C. and then washed gently three times with RPMI/1 percent BSA at 200 μl/well. Binding was observed microscopically, particularly after the second wash.
The bound cells were then lysed by the addition of a 0.5 percent solution of sodium dodecylsulfate in water at 100 μl/well. The resulting solutions were then processed for counting and calculation of IC50 values following usual procedures. Appropriate positive and negative controls were used with each plate so that the results of separate assays could be normalized and compared.

Water solubility = type: physicochemical; conditions: forms a turbid dispersion rather than a solution
[1] = relative to standard peptide SEQ ID NO:3 (=1), normalized IC50, about one-tenth or less of SEQ ID NO:3 assigned zero

T1 sequence (P13612 34-1032): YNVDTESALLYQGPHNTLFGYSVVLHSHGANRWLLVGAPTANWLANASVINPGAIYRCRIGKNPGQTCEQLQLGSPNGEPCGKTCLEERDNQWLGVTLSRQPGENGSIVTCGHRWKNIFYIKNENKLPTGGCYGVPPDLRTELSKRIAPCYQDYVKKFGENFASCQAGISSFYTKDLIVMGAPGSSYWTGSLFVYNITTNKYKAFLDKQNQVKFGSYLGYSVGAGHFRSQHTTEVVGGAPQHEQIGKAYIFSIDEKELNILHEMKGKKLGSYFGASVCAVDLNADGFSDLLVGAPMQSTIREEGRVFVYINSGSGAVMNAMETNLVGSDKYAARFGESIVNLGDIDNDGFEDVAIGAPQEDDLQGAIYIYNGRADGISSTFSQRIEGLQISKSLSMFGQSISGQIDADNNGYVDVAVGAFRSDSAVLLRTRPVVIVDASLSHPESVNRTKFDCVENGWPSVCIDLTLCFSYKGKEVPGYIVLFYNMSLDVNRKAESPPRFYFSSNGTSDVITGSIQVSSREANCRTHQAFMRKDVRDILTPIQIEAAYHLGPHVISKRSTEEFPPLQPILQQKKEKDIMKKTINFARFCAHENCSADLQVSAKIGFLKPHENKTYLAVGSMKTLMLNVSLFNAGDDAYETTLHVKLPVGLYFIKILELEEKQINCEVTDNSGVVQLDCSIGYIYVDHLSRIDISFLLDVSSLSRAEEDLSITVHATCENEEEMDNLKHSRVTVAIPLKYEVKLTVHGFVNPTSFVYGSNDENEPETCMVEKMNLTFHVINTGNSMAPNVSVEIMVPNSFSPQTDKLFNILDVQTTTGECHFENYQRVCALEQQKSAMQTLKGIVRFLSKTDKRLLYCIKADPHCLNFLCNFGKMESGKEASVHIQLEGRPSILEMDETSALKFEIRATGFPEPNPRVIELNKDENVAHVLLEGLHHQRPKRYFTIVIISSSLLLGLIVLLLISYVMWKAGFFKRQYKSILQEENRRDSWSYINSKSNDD
T1 sequence (P05556 21-798): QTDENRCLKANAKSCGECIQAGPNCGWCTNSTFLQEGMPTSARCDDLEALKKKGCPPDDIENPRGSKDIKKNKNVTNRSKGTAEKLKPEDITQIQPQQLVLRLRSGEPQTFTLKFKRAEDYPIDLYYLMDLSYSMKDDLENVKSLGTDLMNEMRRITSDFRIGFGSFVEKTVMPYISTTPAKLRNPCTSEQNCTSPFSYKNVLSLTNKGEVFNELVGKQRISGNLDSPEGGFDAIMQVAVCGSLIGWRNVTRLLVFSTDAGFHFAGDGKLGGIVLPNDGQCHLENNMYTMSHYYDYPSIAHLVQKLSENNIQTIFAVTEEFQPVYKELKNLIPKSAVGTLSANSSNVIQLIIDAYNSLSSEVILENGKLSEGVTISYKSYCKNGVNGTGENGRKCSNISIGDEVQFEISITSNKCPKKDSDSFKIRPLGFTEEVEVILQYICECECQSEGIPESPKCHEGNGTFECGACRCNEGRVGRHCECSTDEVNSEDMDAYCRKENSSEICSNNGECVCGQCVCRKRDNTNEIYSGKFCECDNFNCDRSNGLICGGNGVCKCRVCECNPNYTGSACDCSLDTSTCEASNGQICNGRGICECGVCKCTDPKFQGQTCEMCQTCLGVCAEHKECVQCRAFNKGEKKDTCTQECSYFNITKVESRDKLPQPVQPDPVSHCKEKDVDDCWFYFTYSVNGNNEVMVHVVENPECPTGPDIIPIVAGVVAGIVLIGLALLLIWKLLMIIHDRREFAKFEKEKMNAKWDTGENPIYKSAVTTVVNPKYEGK

SMILES: CC(C)C[C@H](NC(=O)Cc1ccccc1)C(=O)N[C@@H](CC(=O)O)C(=O)N[C@@H](Cc1ccccc1)C(=O)N1CCC(O)CC1
- RELATIVE POTENCY (inhibition of VLA-4 binding CS-1) (VLA-4; [1]): 603

SMILES: CC(C)C[C@H](NC(=O)Cc1ccccc1)C(=O)N[C@@H](CC(=O)O)C(=O)N[C@@H](Cc1ccccc1)C(=O)N1CCN(CC(N)=O)CC1
- RELATIVE POTENCY (inhibition of VLA-4 binding CS-1) (VLA-4; [1]): 319

SMILES: CC(C)C[C@H](NC(=O)Cc1ccccc1)C(=O)N[C@@H](CC(=O)O)C(=O)NC1Cc2ccccc2N(CC(C)C)C1=O (some centres unmarked)
- RELATIVE POTENCY (inhibition of VLA-4 binding CS-1) (VLA-4; [1]): 6

SMILES: CC(C)C[C@H](NC(=O)Cc1ccccc1)C(=O)N[C@@H](CC(=O)O)C(=O)N[C@@H](Cc1ccccc1)C(=O)N1CCC(C(N)=O)CC1 (PhAc-LDF[Inp]-NH2)
- RELATIVE POTENCY (inhibition of VLA-4 binding CS-1) (VLA-4; [1]): 933

SMILES: CC(C)C[C@H](NC(=O)Cc1ccccc1)C(=O)N[C@@H](CC(=O)O)C(=O)NC1CCN(C2CCCCC2)C1=O (some centres unmarked)
- RELATIVE POTENCY (inhibition of VLA-4 binding CS-1) (VLA-4; [1]): 7

SMILES: CC(C)C[C@H](NC(=O)Cc1ccccc1)C(=O)N[C@@H](CC(=O)O)C(=O)NN(Cc1ccccc1)C(=O)C1CCCC1
- RELATIVE POTENCY (inhibition of VLA-4 binding CS-1) (VLA-4; [1]): 1

SMILES: CCCCCCCCCCCCCCCCCC(=O)OC1CCN(C(=O)[C@H](Cc2ccccc2)NC(=O)[C@H](CC(=O)O)NC(=O)[C@H](CC(C)C)NC(=O)Cc2ccccc2)CC1
- RELATIVE POTENCY (inhibition of VLA-4 binding CS-1) (VLA-4; [1]): < 1

- RELATIVE POTENCY (inhibition of VLA-4 binding CS-1) (VLA-4; relative to standard peptide SEQ ID NO:3 (=1), normalized IC50, about one-tenth or less of SEQ ID NO:3 assigned zero, listed as Leu--Asp--Val (LDV) Nfre amine Camide): zero
SMILES: CC(C)C[C@H](N)C(=O)N[C@@H](CC(=O)O)C(=O)N[C@H](C(N)=O)C(C)C [L D V free amine amide, reference compound] (H-Leu-Asp-Val-NH2)

- binding inhibition (in words) (VLA-4; compared to standard 10-mer / B12): three times more potent
SMILES: CC[C@H](C)[C@H](NC(=O)[C@H](CCC(=O)O)NC(=O)[C@@H]1CCCN1C(=O)CNC(=O)[C@H](Cc1c[nH]cn1)NC(=O)[C@H](CC(C)C)NC(=O)[C@H](CC(N)=O)NC(=O)[C@@H]1CCCN1C(=O)[C@H](Cc1c[nH]cn1)NC(=O)[C@@H]1CCCN1C(=O)[C@H](CC(C)C)NC(=O)[C@@H](NC(=O)[C@@H](NC(=O)[C@H](CC(C)C)NC(=O)[C@H](CCC(N)=O)NC(=O)[C@@H]1CCCN1C(=O)[C@H](CC(C)C)NC(=O)[C@H](CCC(=O)O)NC(=O)[C@@H](N)CC(=O)O)C(C)C)[C@@H](C)O)C(=O)N[C@@H](CC(C)C)C(=O)N[C@@H](CC(=O)O)C(=O)N[C@H](C(=O)N1CCC[C@H]1C(=O)N[C@@H](CO)C(=O)N[C@H](C(=O)O)[C@@H](C)O)C(C)C [CS-1 peptide, reference compound] (H-DELPQLVTLPHPNLHGPEILDVPST-OH)

SMILES: CCCC[C@H](NC(=O)Cc1ccccc1)C(=O)N[C@@H](CC(=O)O)C(=O)N[C@@H](Cc1ccccc1)C(=O)N1CCC[C@@H]1C(N)=O [X K D F p phenylacetyl amide J = Nle] (PhAc-[Nle]DF[dP]-NH2)
- RELATIVE POTENCY (inhibition of VLA-4 binding CS-1) (VLA-4; [1]): 49

SMILES: NC(=O)[C@H]1CCCN1C(=O)[C@H](Cc1ccccc1)NC(=O)[C@H](CC(=O)O)NC(=O)[C@H](CC1CCCCC1)NC(=O)Cc1ccccc1 (PhAc-[Cha]DF[dP]-NH2)
- RELATIVE POTENCY (inhibition of VLA-4 binding CS-1) (VLA-4; [1]): 217

SMILES: CCCCCCCCCCNC(=O)[C@@H]1CCCN1C(=O)[C@H](Cc1ccccc1)NC(=O)[C@H](CC(=O)O)NC(=O)[C@H](CC(C)C)NC(=O)Cc1ccccc1 [X L D F P Z phenylacetyl decylamide] (PhAc-LDFP-NHDecyl)
- RELATIVE POTENCY (inhibition of VLA-4 binding CS-1) (VLA-4; [1]): 2

SMILES: CC(C)C[C@H](NC(=O)Cc1ccccc1)C(=O)N[C@@H](CC(=O)O)C(=O)NC1Cc2ccccc2NC1=O (some centres unmarked)
- RELATIVE POTENCY (inhibition of VLA-4 binding CS-1) (VLA-4; [1]): 31

SMILES: CC(C)C[C@H](NC(=O)Cc1ccccc1)C(=O)N[C@@H](CC(=O)O)C(=O)NC(c1ccccc1)c1ccccc1 [X L D Z phenylacetyl benzylhydrylamide]
- RELATIVE POTENCY (inhibition of VLA-4 binding CS-1) (VLA-4; [1]): 3

SMILES: CC(C)C[C@H](NC(=O)Cc1ccccc1)C(=O)N[C@@H](CC(=O)O)C(=O)N[C@@H](Cc1ccccc1)C(=O)N1CCCC1CO (some centres unmarked)
- RELATIVE POTENCY (inhibition of VLA-4 binding CS-1) (VLA-4; [1]): 184

SMILES: CC(C)C[C@H](NC(=O)Cc1ccccc1)C(=O)N[C@@H](CC(=O)O)C(=O)NNC(=O)OC(C)(C)C [X L D Z phenylacetyl N'-t-Boc-hydrazide]
- RELATIVE POTENCY (inhibition of VLA-4 binding CS-1) (VLA-4; [1]): 2

SMILES: CC(C)C[C@H](NC(=O)Cc1ccccc1)C(=O)N[C@@H](CC(=O)O)C(=O)NCC(=O)N1CCOCC1 [X L D G Z phenylacetyl morpholinamide] (PhAc-Leu-Asp-Gly-Morpholide)
- RELATIVE POTENCY (inhibition of VLA-4 binding CS-1) (VLA-4; [1]): 9

SMILES: CC(C)C[C@H](NC(=O)Cc1ccccc1)C(=O)N[C@@H](CC(=O)O)C(=O)N[C@@H](Cc1ccccc1)C(=O)N1CCSCC1
- RELATIVE POTENCY (inhibition of VLA-4 binding CS-1) (VLA-4; [1]): 493

SMILES: CC(C)C[C@H](NC(=O)Cc1ccccc1)C(=O)N[C@@H](CC(=O)O)C(=O)N[C@@H](CCc1ccccc1)C(=O)N1CCC[C@@H]1C(N)=O (PhAc-LD[hPhe][dP]-NH2)
- RELATIVE POTENCY (inhibition of VLA-4 binding CS-1) (VLA-4; [1]): 94

SMILES: CC(C)C[C@H](NC(=O)Cc1ccccc1)C(=O)N[C@@H](CC(=O)O)C(=O)N[C@@H](Cc1ccc(O)cc1)C(=O)N1CCOCC1 [X L D Y Z phenylacetyl morpholinamide, N--phenylacetyl--Leu--Asp--Tyr--morpholinamide] (PhAc-Leu-Asp-Tyr-Morpholide)
- RELATIVE POTENCY (inhibition of VLA-4 binding CS-1) (VLA-4; [1]): 313

SMILES: CC(C)C[C@H](NC(=O)Cc1ccccc1)C(=O)N[C@@H](CC(=O)O)C(=O)N[C@@H](Cc1ccccc1)C(=O)N1CCNCC1 [X L D F Z phenylacetyl piperazinamide]
- RELATIVE POTENCY (inhibition of VLA-4 binding CS-1) (VLA-4; [1]): 506

SMILES: CC(C)C[C@H](NC(=O)Cc1ccccc1)C(=O)N[C@@H](CC(=O)O)C(=O)N[C@@H](Cc1ccccc1)C(=O)N1CCCCC1 [X L D F Z phenylacetyl piperidinamide, N--phenylacetyl--Leu--Asp--Phe--piperidinamide] (PhAc-Leu-Asp-Phe-Piperidide)
- RELATIVE POTENCY (inhibition of VLA-4 binding CS-1) (VLA-4; [1]): 231

SMILES: CC(C)C[C@H](NC(=O)Cc1ccccc1)C(=O)N[C@@H](CC(=O)O)C(=O)N[C@@H](Cc1ccccc1)C(N)=O [X L D F phenylacetyl amide] (PhAc-Leu-Asp-Phe-NH2)
- RELATIVE POTENCY (inhibition of VLA-4 binding CS-1) (VLA-4; [1]): < 1

SMILES: CC(C)C[C@H](NC(=O)Cc1ccccc1)C(=O)N[C@@H](CC(=O)O)C(=O)N[C@@H](Cc1ccccc1)C(=O)N1CCN(CC(=O)O)CC1
- RELATIVE POTENCY (inhibition of VLA-4 binding CS-1) (VLA-4; [1]): 2579

- RELATIVE POTENCY (inhibition of VLA-4 binding CS-1) (VLA-4): 0
SMILES: CC(=O)N[C@@H](CC(C)C)C(=O)N[C@@H](CC(=O)O)C(=O)N[C@@H](Cc1ccccc1)C(N)=O [L D F acetyl amide] (Ac-Leu-Asp-Phe-NH2)

SMILES: CC(C)C[C@H](NC(=O)Cc1ccccc1)C(=O)N[C@@H](CC(=O)O)C(=O)NC1CCCCNC1=O (some centres unmarked)
- RELATIVE POTENCY (inhibition of VLA-4 binding CS-1) (VLA-4; [1]): 27

SMILES: CC(C)C[C@H](NC(=O)Cc1ccccc1)C(=O)N[C@@H](CC(=O)O)C(=O)NCc1ccccc1 [X L D Z phenylacetyl benzylamide] (PhAc-Leu-Asp-NHBn)
- RELATIVE POTENCY (inhibition of VLA-4 binding CS-1) (VLA-4; [1]): 19

SMILES: CC(C)C[C@H](NC(=O)Cc1ccccc1)C(=O)N[C@@H](CC(=O)O)C(=O)NCCc1ccccc1 [X L D Z phenylacetyl phenethylamide] (PhAc-Leu-Asp-NHPhenethyl)
- RELATIVE POTENCY (inhibition of VLA-4 binding CS-1) (VLA-4; [1]): 19

- water solubility (Water solubility): not water-soluble
SMILES: CCCCCCCCCCCCCCCCCCNC(=O)CCCCCNC(=O)[C@@H]1CCCN1C(=O)[C@H](Cc1ccccc1)NC(=O)[C@H](CC(=O)O)NC(=O)[C@H](CC(C)C)NC(=O)Cc1ccccc1 [phenylacetyl--Leu--Asp--Phe--Pro--NH(CH2)5 C(O)NHC18 H37] (PhAc-LDFP[Ahx]-NHOctadecyl; C-terminus assumed)
